Measurements published in patent publication US4354973A, “Pyrrolo[3,4-d][2]benzazepines” (Hoffmann-La Roche Inc., priority 1981, dated 1982).

Test system: mice
Test: Footshock (fighting episodes of pairs of mice)
Format: in vivo
Conditions: Mus musculus; pairs of mice pretreated 1 hour prior to second shocking; 3 out of 3 pairs blocked from fighting; read-out: Footshock, 100% blocking dose
Method: A pair of mice is confined under a one liter beaker placed on a grid which presents shock to the feet. At least 5 fighting episodes are elicited in a two-minute period. Pairs of mice are marked and pretreated 1 hour prior to a second shocking. Logarithmic dose intervals are utilized up to a maximum of 100 mg/kg. At the 100% blocking dose, 3 out of 3 pairs must be blocked from fighting.

| SMILES | ED100 |
| --- | --- |
| Clc1ccc2c(c1)C(c1ccccc1Cl)=NCc1c[nH]cc1-2 [8-Chloro-6-(2-chlorophenyl)-2H,4H-pyrrolo[3,4-d][2]benzazepine] | 1 mg/kg |
| CS(=O)(=O)O.Cc1[nH]cc2c1-c1ccc(Cl)cc1C(c1ccccc1F)=NC2 [8-Chloro-6-(2-fluorophenyl)-1-methyl-2H,4H-pyrrolo[3,4-d][2]benzazepine methanesulfonate] | 2 mg/kg |
| Clc1ccc2c(c1)C(c1ccccc1)=NCc1c[nH]cc1-2 [8-Chloro-6-phenyl-2H,4H-pyrrolo[3,4-d][2]benzazepine] | 25 mg/kg |

Test system: Cats
Test: Unanesthetized Cat (minimum symptoms, usually ataxia)
Format: in vivo
Conditions: Felis catus, oral, up to three cats/dose
Method: Cats are treated orally and observed for minimum symptoms-usually ataxia. One cat is used at a dose of 50 mg/kg. If activity is present, up to three cats/dose are used. Results are given as minimum effective dose.

| SMILES | minimal effective dose |
| --- | --- |
| Clc1ccc2c(c1)C(c1ccccc1Cl)=NCc1c[nH]cc1-2 [8-Chloro-6-(2-chlorophenyl)-2H,4H-pyrrolo[3,4-d][2]benzazepine] | 0.25 mg/kg |
| CS(=O)(=O)O.Cc1[nH]cc2c1-c1ccc(Cl)cc1C(c1ccccc1F)=NC2 [8-Chloro-6-(2-fluorophenyl)-1-methyl-2H,4H-pyrrolo[3,4-d][2]benzazepine methanesulfonate] | 2.5 mg/kg |
| Clc1ccc2c(c1)C(c1ccccc1)=NCc1c[nH]cc1-2 [8-Chloro-6-phenyl-2H,4H-pyrrolo[3,4-d][2]benzazepine] | 2.5 mg/kg |

Test system: male mice
Test: Inclined Screen (paralyzing effects)
Format: in vivo
Conditions: Mus musculus; groups of 6 male mice; at least 4 hours observation; maximum dose 500 mg/kg; read-out: Inclined Screen, PD50
Method: Groups of 6 male mice are given the test drug (maximum dose of 500 mg/kg) and then are left on the inclined screen at least 4 hours for observation of paralyzing effects severe enough to cause them to slide off the screen. If activity is observed, additional doses are taken until at least two are reached at which some, but not all of the animals slide off the screen. Doses at which mice fall off the screen due to toxicity or excitation are not included in the calculation of PD50.

| SMILES | ED50 |
| --- | --- |
| Clc1ccc2c(c1)C(c1ccccc1Cl)=NCc1c[nH]cc1-2 [8-Chloro-6-(2-chlorophenyl)-2H,4H-pyrrolo[3,4-d][2]benzazepine] | 400 mg/kg |
| CS(=O)(=O)O.Cc1[nH]cc2c1-c1ccc(Cl)cc1C(c1ccccc1F)=NC2 [8-Chloro-6-(2-fluorophenyl)-1-methyl-2H,4H-pyrrolo[3,4-d][2]benzazepine methanesulfonate] | 400 mg/kg |
| Clc1ccc2c(c1)C(c1ccccc1)=NCc1c[nH]cc1-2 [8-Chloro-6-phenyl-2H,4H-pyrrolo[3,4-d][2]benzazepine] | 400 mg/kg |

Test system: not listed separately
Test: Toxicity (LD50)
Conditions: in vivo, po

| SMILES | LD50 |
| --- | --- |
| Clc1ccc2c(c1)C(c1ccccc1Cl)=NCc1c[nH]cc1-2 [8-Chloro-6-(2-chlorophenyl)-2H,4H-pyrrolo[3,4-d][2]benzazepine] | > 1000 mg/kg |
| CS(=O)(=O)O.Cc1[nH]cc2c1-c1ccc(Cl)cc1C(c1ccccc1F)=NC2 [8-Chloro-6-(2-fluorophenyl)-1-methyl-2H,4H-pyrrolo[3,4-d][2]benzazepine methanesulfonate] | > 1000 mg/kg |
| Clc1ccc2c(c1)C(c1ccccc1)=NCc1c[nH]cc1-2 [8-Chloro-6-phenyl-2H,4H-pyrrolo[3,4-d][2]benzazepine] | > 1000 mg/kg |
